Reference: patent US20060160785A1, “Ezetimibe polymorphs” (priority 2004, published 2006)
Converted amounts (≈) assume the structure as drawn. “Also recorded” adds a separate entry of the source. Blank lines part the entries; values can stand above or below the molecule they belong to.

Experiments:
[1] = Transformation of ezetimibe crystal forms by heating (XRD); assay type: physicochemical
Description: In the following examples, the forms of ezetimibe were identified using Scintag X-ray powder diffractometer model X'TRA, Cu-tube solid state detector. The sample holder was a round standard aluminum sample holder with rough zero background quartz plate with a cavity of 25 (diameter) X 0.5 mm (depth). The scanning parameters were range: 2-40 degrees two-theta; scan mode: continuous scan; step size: 0.05 deg.; and a rate of 3 deg/min.
After two hours, each sample was removed and analyzed by XRD.

Solubility of ezetimibe = assay type: physicochemical; details: water
[2] = cited from earlier work
[3] = reported; cited from earlier work
[4] = Particle size distribution by Malvern laser diffraction; assay type: physicochemical; details: prime particles with sonication
Procedure: A Malvern Laser Diffraction instrument was used to characterize the particle size distribution of ezetimibe. A Mastersizer S model equipped with a small cell dispersion unit MS1 with a digital dispersion unit controller was used. The measurement was done using range lens 300RF (working range 0.05-900 mcm), beam length: 2.40 mm and presentation 3NHE. In this case, a solution of dioctyl sulfosuccinate sodium salt in n-hexane was used as a dilution medium. The measurement was started after 1 minute of recirculation after suspension addition into measurement cell at speed rate 2000±10 rpm.
The suspension was prepared of 0.1 g sample in solution 0.065% dioctyl sulfosuccinate sodium salt in n-hexane by vortex for 10 seconds and by sonication for 30 seconds. According to the accepted rules of Good Manufacture Procedures, the sample of ezetimibe is preferably measured after a successful blank measurement (% obscuration NMT 0.1% is performed.

[5] = Transformation under different relative humidities (XRD and KF); assay type: physicochemical; details: for Crystal form / Water content by KF: 25-30° C.
Procedure: 500 mg samples were placed in an open glass bottle at a temperature of 25° C. to 30° C., under various humidity for a sufficient time (1-14 days) for each sample to equilibrate. At the end of each time period, each sample was removed and analyzed by XRD and by KF. The results are summarized below in Tables 6-7 for starting Forms A and B, respectively.

[6] = Effect of pressing on crystalline stability; assay type: physicochemical; details: pressed 1 minute, approximately 1300 psi
Procedure: Crystalline stability of Form A and Form B was tested by pressing each of the forms for about 1 minute under a pressure of about 1300 psi. […] Form A is also stable under pressing.
Forms A and B were studied under pressure. The forms were pressed for 1 minute under a pressure of approximately 1300 psi.

[7] = Micronization (milling) crystal form stability; assay type: physicochemical
Procedure: Micronization of Form B is preferably carried out by milling Form B using a feed air rate of about 6 bar and a grinding air pressure of about 5 bar, for about 20 to about 30 minutes.
Form B was milled by a 50 mm micronizer for about 20 to 30 minutes. The feed air rate was 6.0 bar and the grinding air was 5.0 bar. The sample was analyzed before and after micronization by XRD. During micronization 65% (estimated by XRD and by KF) of Form B converted to Form A. The estimated water content is 1-2% by weight. Micronization of Form A on the other hand results in Form A.

[8] = Specific surface area (Coulter SA3100, BET); assay type: physicochemical
Procedure: Specific surface area was measured using the following parameters:
Instrument: Coulter SA3100
(§1) Table 8 illustrates the maximum particle size and specific surface area of ezetimibe Form B before and after micronization. The maximum particle size was determined by microscope observation.

[9] = Stability of Form B in water slurry; assay type: physicochemical
Procedure: Ezetimibe Form B was stirred in soft water (25 ml) for 4 h at room temperature (heavy slurry). The mixture was filtered and washed with water (20 ml). The wet sample, after washing, was Form B. The solid was dried under vacuum at 45° C. for 18 hrs. The dry sample contained Form B (20-30% by weight) and Form A. 95% yield.

[10] = Maximum particle size by microscope observation; assay type: physicochemical
Procedure: (§2) 1 g mixture of micronized Form A and B was stored at 30° C. under 100% RH for 8 days. The mixture of Form A and Form B converted to 100% Form B after storage. Micronized Form B contained 4.1% water by weight based on Karl Fischer analysis. The micronized sample was analyzed before and after storage by XRD. The material was dispersed in light mineral oil before measurement for microscope observation. Form B was in the shape of needles and plates.
as §1

[11] = Storage of micronized Form A and B mixture at 30° C., 100% RH; assay type: physicochemical; details: 8 days
Procedure: as §2

[12] = 50 mm micronizer, 20 to 30 minutes

- heat transformation result (crystal form by XRD) ([1]; 60° C., 2 h, atmospheric oven): Amorphous Form
- heat transformation result (crystal form by XRD) ([1]; 90° C., 2 h, atmospheric oven): Form A
- temperature at which it transforms to Form A ([1]; heating): above 60 °C
Compound: O=C1[C@H](CC[C@H](O)c2ccc(F)cc2)[C@@H](c2ccc(O)cc2)N1c1ccc(F)cc1 [Amorphous Form, 1-(4-fluorophenyl)-3(R)-[3-(4-fluorophenyl)-3(S)-hydroxypropyl]-4(S)-(4-hydroxyphenyl)-2-azetidinone]

- solubility (Solubility of ezetimibe): 10 µg/mL (≈ 24.4 µM)
Compound: O=C1[C@H](CC[C@H](O)c2ccc(F)cc2)[C@@H](c2ccc(O)cc2)N1c1ccc(F)cc1 [Ezetimibe, 1-(4-fluorophenyl)-3(R)-[3-(4-fluorophenyl)-3(S)-hydroxypropyl]-4(S)-(4-hydroxyphenyl)-2-azetidinone]
- solubility in ethanol, methanol, and acetone ([2]; ethanol, methanol, acetone): freely to very soluble
- solubility in water ([2]; water): practically insoluble
- stability at ambient temperature [3]: stable

- d (0.5) [4]: 3.18-3.33 microns
- d (0.9) [4]: 7.95-8.05 microns
- d(0.1) [4]: 0.39 microns
- Crystal form ([5]; RH 0%, 12 days): Form A
- Water content by KF ([5]; RH 0%, 12 days): 0.2 wt %
- Crystal form ([5]; RH 20%, 7 days): Form A + ˜5% B*
- Water content by KF ([5]; RH 20%, 7 days): 0.2 wt %
- Crystal form ([5]; RH 40%, 12 days): Form A + ˜5-10% B*
- Water content by KF ([5]; RH 40%, 12 days): 0.3 wt %
- Crystal form ([5]; RH 80%, 12 days): Form B
- Water content by KF ([5]; RH 80%, 12 days): 4.5 wt %
- Crystal form ([5]; RH 100%, 1 day): Form B
- Water content by KF ([5]; RH 100%, 1 day): 4.3 wt %
- Sample after pressing (crystal form) [6]: stable; also recorded: Form A + ˜5% B
- crystal form after micronization [7, 12]: Form A
- stability upon micronization ([7]; milling, feed air 6 bar, grinding air 5 bar): stable
- heat transformation result (crystal form by XRD) ([1]; 60° C., 2 h, atmospheric oven): Form A
- heat transformation result (crystal form by XRD) ([1]; 90° C., 2 h, atmospheric oven): Form A
- heat transformation result (crystal form by XRD) ([1]; 110° C., 2 h, atmospheric oven): Form A
- stability upon heating ([1]; even at high temperatures): stable
Compound: O=C1[C@H](CC[C@H](O)c2ccc(F)cc2)[C@@H](c2ccc(O)cc2)N1c1ccc(F)cc1 [Form A, 1-(4-fluorophenyl)-3(R)-[3-(4-fluorophenyl)-3(S)-hydroxypropyl]-4(S)-(4-hydroxyphenyl)-2-azetidinone]

- SSA ([8]; After micronization): 6.8 m^2/g
- SSA ([8]; Before micronization): 3.4 m^2/g
- Form B content of dry sample after water slurry ([9]; dried under vacuum at 45° C. for 18 hrs, remainder Form A): 20-30 % by weight
- crystal form of wet sample after water slurry ([9]; soft water, 4 h, room temperature, filtered and washed): Form B
- Crystal form ([5]; RH 0%, 14 days): Form A
- Water content by KF ([5]; RH 0%, 14 days): 0.1 wt %
- Crystal form ([5]; RH 20%, 7 days): Form A + ˜5% B*
- Water content by KF ([5]; RH 20%, 7 days): 0.2 wt %
- Crystal form ([5]; RH 40%, 14 days): Form B
- Water content by KF ([5]; RH 40%, 14 days): 4.0 wt %
- Crystal form ([5]; RH 80%, 14 days): Form B
- Water content by KF ([5]; RH 80%, 14 days): 4.3 wt %
- Crystal form ([5]; RH 100%, 14 days): Form B
- Water content by KF ([5]; RH 100%, 14 days): 4.4 wt %
- estimated water content after micronization [7, 12]: 1-2 % by weight
- Form B converted to Form A during micronization ([7]; 50 mm micronizer, 20 to 30 minutes, estimated by XRD and by KF): 65%
- Maximum particle size ([10]; After micronization): 20 μm
- Maximum particle size ([10]; Before micronization): 400 μm
- heat transformation result (crystal form by XRD) ([1]; 45° C., 18 h): Form A
- heat transformation result (crystal form by XRD) ([1]; 60° C., 2 h, atmospheric oven): Form A
- heat transformation result (crystal form by XRD) ([1]; 90° C., 2 h, atmospheric oven): Form A
- heat transformation result (crystal form by XRD) ([1]; 110° C., 2 h, atmospheric oven): Form A
Compound: O=C1[C@H](CC[C@H](O)c2ccc(F)cc2)[C@@H](c2ccc(O)cc2)N1c1ccc(F)cc1 [Form B, 1-(4-fluorophenyl)-3(R)-[3-(4-fluorophenyl)-3(S)-hydroxypropyl]-4(S)-(4-hydroxyphenyl)-2-azetidinone]
- Sample after pressing (crystal form) [6]: retains its crystalline form; also recorded: Form B

- stability upon slurrying [9]: stable
- stability in relative humidity ([5]; relative humidity of about 40% to about 100%): stable
- water content by Karl Fischer after storage [11]: 4.1 % by weight
Compound: O=C1[C@H](CC[C@H](O)c2ccc(F)cc2)[C@@H](c2ccc(O)cc2)N1c1ccc(F)cc1 [Micronized Form B]

- Form B content after storage [11]: 100%
Compound: O=C1[C@H](CC[C@H](O)c2ccc(F)cc2)[C@@H](c2ccc(O)cc2)N1c1ccc(F)cc1 [mixture of micronized Form A and B]
